Drawing on a melting point compilation (Tetko et al.; mined from patent text by program, amines drawn as free bases though some values may be those of a salt), this text covers melting point for 34 compounds.

Each structure is given as a SMILES string.

In the case of `CCOC(=O)c1c(CC(=O)O)n(-c2ccc(OC(C)C)cc2)c2ccc(Oc3nc(C)ccc3C#N)cc12`, the melting point (in general, the temperature of the solid-liquid transition) worked out at 179 °C.
`CCOC(=O)C1C(=O)C=C(c2ccccc2)N=C1c1ccccc1` (centres undefined) showed a melting point of 177 to 179 °C.
`CC(=O)C(=Cc1cccc([N+](=O)[O-])c1)C(C)=O` had a melting point of 92 to 95 °C.
`Cc1c(C)c(N2CCN(c3ccc(C(F)(F)F)cc3)CC2)c(C)c2c1OC(C)(C)C2O` (centres undefined) registered a melting point of 212 to 214 °C.
Compound `O=[N+]([O-])c1cc(S(=O)c2ccc(-c3ccc(Br)cc3)cc2)ccc1Cl` (centres undefined) showed a melting point of 173 to 175 °C.
For `CC(C)C(C#N)Nc1ccc(C(F)(F)F)cc1` (centres undefined), the melting point was 64.5 to 67 °C.
Consider `CN1CCOc2cc(O)c(C3(O)C(=O)N(Cc4ccc(C(F)(F)F)o4)c4ccccc43)cc21` (centres undefined), for which the melting point lay in the range of 184 to 186 °C.
`CCOC(=O)c1cn(C2CC2)c2cc(N3C[C@@H](C)N[C@@H](C)C3)c(F)c(N)c2c1=O` displayed a melting point of 194 to 196 °C.
For the compound `COc1cc(COc2nn(-c3ccccc3)cc2C(N)=O)ccc1OCc1nc(-c2ccccc2)oc1C`, the melting point lay in the range of 190 to 191 °C.
For `CC(C)c1oc(C=Cc2ccccc2)nc1CO`, the melting point was 91 to 92 °C.
Regarding `CN(c1cccc2cc(C3=NCC(CC(N)=O)S3)[nH]c12)S(=O)(=O)c1ccccn1` (centres undefined), the melting point is 149 to 150 °C.
Compound `CC1CC2C3CCC4=CC(=O)C=CC4(C)C3=CCC2(C)C1C(=O)CN1CCN(c2cc(N3CCC4(CC3)OCCO4)nc(N3CCC4(CC3)OCCO4)n2)CC1` (centres undefined) displayed a melting point of 156 to 174 °C.
The same measure for `O=C(CCl)Nc1c(Cl)cccc1SSc1cccc(Cl)c1NC(=O)CCl`: 188 to 189 °C; for `NNc1nc(C(F)(F)F)nc(-c2ccc(F)cc2)c1-c1ccccc1`: 175 to 177 °C; for `Nc1ccccc1C(=O)NC1CCCCC1`: 152 to 154 °C.
`COC(=O)Cc1c(F)cc(O)cc1F`: the melting point is 75.5 to 77.5 °C.
Take `COc1ccc(C(=O)Nc2ccccc2)cc1NCc1ccccc1C`: the melting point was in the range of 167 to 169 °C.
In the case of `CC(C)N1C(=O)c2ccccc2Oc2ccccc21`, the melting point was in the range of 102 to 103 °C.
As for `O=C1CCC(c2c[nH]c3ncccc23)CC1`, the melting point lay in the range of 162 to 164 °C.
In the case of `COC(=O)c1cc(I)ccc1NC=C1C(=O)OC(C)(C)OC1=O`, the melting point fell in the range of 206 to 208 °C.
For `O=c1c(-c2ccccc2)cc(CO)c2n1CCc1ccsc1-2`, the melting point was 199 to 200 °C.
The same measure for `COc1cc(C)c(C(=O)c2c(OC)ccc(Br)c2Cl)c(OC)c1OC`: 87 to 88 °C; for `CC1(C)OC(=O)Nc2ccc(-c3ccccc3-c3ncsn3)cc21`: 214 to 216 °C.
The same measure for `CC(C)c1ccc(-c2ccnc(-c3cccc(C(=O)O)c3)c2)cc1`: 233 to 234 °C.
The compound `CC(C)(C)c1ccc(SC(CCl)S(=O)(=O)c2ccccc2)cc1` (centres undefined) gave a melting point of 67 to 69 °C.
`Fc1ccc(-c2nn3c(-c4ccccc4)cc(-c4ccccc4)nc3c2-c2ccncc2)cc1` displayed a melting point of 243 to 245 °C.
The compound `Cc1[nH]c(=S)n(Nc2ccccc2)c1-c1ccccc1` registered a melting point of 224 to 226 °C.
`CCCN=C(Cc1ccccc1)N1CC2C(=O)CCC(c3ccccc3)(c3ccccc3)C2C1` (centres undefined) had a melting point of 86 °C.
The same measure for `COc1ccc(-c2csc(NC(=O)COc3ccc(Cl)cc3Cl)n2)cc1`: 135 to 139 °C; for `O=C1c2ccccc2Cc2c1ccc(Cl)c2O`: 186 to 188 °C.
Compound `CN(C)c1ccc(NC(=O)N(Cc2ccco2)C[C@@H]2CCC[C@H](CN(Cc3ccco3)C(=O)Nc3ccc(N(C)C)cc3)C2)cc1` gave a melting point of 68 to 73 °C.
On to `CC(C)CN1C2=NCCN2C(=O)C(N=O)=C1N`, for which the melting point was 203 to 205 °C.
Turning to `O=[N+]([O-])c1ccc(Sc2ncccn2)cc1`, the melting point lay in the range of 103 to 104 °C.
`Cc1cc(F)ccc1-c1nc(N[C@@H](C)CO)nc2c1ccc(=O)n2-c1c(F)cccc1F` showed a melting point of 90 to 95 °C.
